Patent publication US4532240A, “Diaminopyrimidines” (Warner-Lambert Company, priority 1983, dated 1985)

Experiments:
M. faecalis = assay: Antibacterial disk zone of inhibition, M. faecalis (as headed); type: cell-based, Streptococcus faecalis 05045; conditions: Enterococcus faecalis, read-out: Inhibition Zone diameter; for zone of inhibition at 10 µg/mL: 0.01 mg/ml; for zone of inhibition at 100 µg/mL: 0.1 mg/ml
Method: (§1) Vegetative bacterial isolates are maintained on agar slants or in liquid media, hereby designated as inoculum media. The cultures are transferred at regular intervals in such media. (See Table IV for the corresponding inoculum media of each culture.) The organisms are generally transferred either onto agar slants or into liquid inoculum media and incubated at 37° C. (at 28° C. with Xanthomonas sp.) overnight (18-20 hours).
(§2) The microbial cells from the overnight agar slants are then scraped off and suspended in saline solution (0.85% NaCl). The microbial concentrations are adjusted to a light transmission of 8.6% using a PerkinElmer Model 35 spectrophotometer (550 nm). For the organisms that are maintained in liquid media, one of two procedures is followed: (1) the culture suspension is first centrifuged at 5000 rpm for five minutes. The pellet is resuspended in 0.85% saline to 8.6% light transmittancy; (2) an aliquot of the culture suspension is to be added directly to the assay medium.
(§3) A given molten-agar assay medium, maintained in a flask at approximately 45° C., is inoculated with 0.16-10 ml of an appropriate cell or spore suspension per 100 ml of medium. Fifty ml of the inoculated medium is poured into a Bio-Assay dish (A/S Nunc; Gibco Laboratories Catalog Number 240835) and spread evenly across the bottom, then allowed to solidify at room temperature. Each agar dish is inverted and refrigerated until used.
(§4) The compounds or samples to be tested are dissolved in suitable solvents, e.g., alcohols, dimethylsulfoxide, or N,N-dimethylformamide. The samples are generally dissolved so that the final concentration of the solvent is <10%.* The compounds are tested at different concentrations: 3,000; 1,000; 500; 100; and 10 mcg/ml. Paper discs (12.7 mm diameter) saturated with a given concentration of test compound are placed onto the seeded agar dishes with a pair of forceps.
(§5) The disked agar dishes are incubated at 37° C. (28° C. for Xanthamonas sp.) for 18-20 hours. Active compounds show a zone of inhibition around the disc. The diameter of the zone is measured in mm. The zone diameter of active compounds ranges from a minimum of 13.5 mm to as high as 60 mm. The size of the zone diameter generally reflects the activity of the compound: the larger the zone the greater the activity.

L1210 cells = assay: In vitro antitumor screening on L1210 murine leukemia cell line (growth, Coulter counter); type: cell-based; conditions: Mus musculus, L1210, 72 h; three days, 37° C., 5% CO2; read-out: L1210 Leukemia in vitro ID50
Method: L1210 cells, a murine leukemia cell line, were grown in RPMI 1640 supplemented with 5% fetal bovine serum and gentamicin (50 μg/ml).
Drug dilutions were prepared in the appropriate solvent and 20 μl of each dilution were added to 24-well Linbro tissue culture plates, followed by the addition of M 2.0 ml of cell suspension containing 3×10^4cells per ml. Solvent and medium controls were included in each test. After incubation at 37° C. for three days in 5% CO2, the contents of each well were removed and the cells counted in a ZBI Coulter counter. Percent growth was calculated relative to the controls and the levels of drug activity were expressed as ID50 in moles per liter using probit paper.

[1] = test system: HCT-8 (human colon adenocarcinoma) cells; assay: In vitro activity against HCT-8 human colon adenocarcinoma cells; type: cell-based; conditions: HCT-8, 60-65 hours with compound, 37° C., read-out: ID50 against human colon adenocarcinoma
Method: HCT-8 (human colon adenocarcinoma) cells are trypsinized using Trypsin-EDTA. A single cell suspension is achieved by passing the cells through a 26 gauge needle with a 20 cc syringe. A cell suspension is prepared using RPMI 1640+10% FCS+50 μg/ml garamycin with a cell concentration of approximately 30,000 cells/ml. The cell suspension is dispensed in Linbro 24-well plates; 1 ml/well. The plates are incubated for approximately 48 hours at 37° C. in a 5% CO2 atmosphere. At this time test compounds are added in the appropriate concentration. Five μl of the 200 μg/ml stock solution is added to each well in a primary test. Ten μl of the appropriate dilution is added to each well for a titration test. The plates are reincubated an additional 60-65 hours at 37° C. in a 5% CO2 atmosphere. The test is read by lysing the cells using a mix of cationic surfactant, glacial acetic acid and sodium chloride. […] of the lysed cell suspension from each well is added to 8 ml of diluent. Each sample is read on the Coulter counter (ZBI model). The activity of each sample is measured as a percentage of the controls and the data is reported as ID50, that is the molar quantity of drug required to kill 50% of the tumor cells.

S. lutea = assay: Antibacterial disk zone of inhibition, S. lutea (as headed); type: cell-based, Micrococcus luteus 05064; conditions: Micrococcus luteus, read-out: Inhibition Zone diameter; for zone of inhibition at 10 µg/mL: 0.01 mg/ml; for zone of inhibition at 3000 µg/mL: 3.0 mg/ml; for zone of inhibition at 100 µg/mL: 0.1 mg/ml
Method: as §1, §2, §3, §4, §5

X. phaseoli = assay: Antibacterial disk zone of inhibition, X. phaseoli; type: cell-based, Xanthomonas phascoli 06002; conditions: Xanthomonas; 3.0 mg/ml; read-out: Inhibition Zone diameter
Method: as §1, §2, §3, §4, §5

B. subtilis = assay: Antibacterial disk zone of inhibition, B. subtilis; type: cell-based, Bacillus subtilis 04555; conditions: Bacillus subtilis, read-out: Inhibition Zone diameter; for zone of inhibition at 100 µg/mL: 0.1 mg/ml; for zone of inhibition at 3000 µg/mL: 3.0 mg/ml
Method: as §1, §2
Isolate spore suspensions (Bacillus sp.) are maintained at 4° C. These suspensions serve as the inoculum media for assays.
as §3, §4, §5

B. catarrhalis = assay: Antibacterial disk zone of inhibition, B. catarrhalis; type: cell-based, Branhamella catarrhalis 03596; conditions: Moraxella catarrhalis, read-out: Inhibition Zone diameter; for zone of inhibition at 500 µg/mL: 0.5 mg/ml; for zone of inhibition at 100 µg/mL: 0.1 mg/ml
Method: as §1, §2, §3, §4, §5

P388 Leukemia = assay: In vivo lymphocytic leukemia P388 test in mice; design: species or system CD2 F1 mice; conditions: intraperitoneal, two single doses four days apart
Method: The in vivo lymphocytic leukemia P388 test is carried out using the test system of the United States National Cancer Institute. The animals used are either male or female CD2 F1 mice. There are six to seven animals per test group. The tumor transplant is by intraperitoneal injection of dilute ascitic fluid containing cells of lymphocytic leukemia P388. The test compounds are administered intraperitoneally in two single doses with a four-day interval between doses at various dose levels following tumor inoculation. The animals are weighed and survivors are recorded on a regular basis for 30 days. A ratio of survival time for treated (T)/control (C) animals is calculated. The criterion for efficacy is T/C×100>125%. The positive control compound in this test is 5-fluorouracil. See Cancer Chemotherapy Reports, Part 3, 3, 1 (1972) for a comprehensive discussion of the protocol.

Compound	zone of inhibition at 10 µg/mL (M. faecalis)	IC50 (L1210 cells)	IC50 [1]	zone of inhibition at 10 µg/mL (S. lutea)	zone of inhibition at 3000 µg/mL (X. phaseoli)	zone of inhibition at 100 µg/mL (B. subtilis)	zone of inhibition at 500 µg/mL (B. catarrhalis)	T/C × 100 (P388 Leukemia; 6.25 mg/kg)	T/C × 100 (P388 Leukemia; 12.5 mg/kg)	T/C × 100 (P388 Leukemia; 25 mg/kg)	T/C × 100 (P388 Leukemia; 50 mg/kg)	zone of inhibition at 100 µg/mL (M. faecalis)	zone of inhibition at 100 µg/mL (B. catarrhalis)	zone of inhibition at 3000 µg/mL (S. lutea)	zone of inhibition at 10 µg/mL (B. subtilis; 0.01 mg/ml)	zone of inhibition at 100 µg/mL (S. lutea)	zone of inhibition at 3000 µg/mL (B. subtilis)	zone of inhibition at 500 µg/mL (S. lutea; 0.5 mg/ml)	zone of inhibition at 10 µg/mL (B. catarrhalis; 0.01 mg/ml)	zone of inhibition at 3000 µg/mL (B. catarrhalis; 3.0 mg/ml)
CCc1nc(N)nc(N)c1N1CCN(c2ccc(C(=O)O)cc2)CC1 [Example 11, 4-[4-(2,4-Diamino-6-ethyl-5-pyrimidinyl)-1-piperazinyl]benzoic acid]	19 mm	10 nM	570 nM	16 mm	0 mm	18 mm	27 mm	–	–	–	–	–	–	–	–	–	–	–	–	–
CC(=O)c1ccc(N2CCN(c3c(C)nc(N)nc3N)CC2)cc1 [Example 5, 5-[4-(4-acetylphenyl)-1-piperazinyl]-6-methyl-2,4-pyrimidinediamine, hydrate (100:18)]	–	5 nM	510 nM	14 mm	0 mm	23 mm	–	123%	144%	181%	250%	16 mm	24 mm	–	–	–	–	–	–	–
Cc1nc(N)nc(N)c1N1CCN(c2ccc(S(C)(=O)=O)cc2)CC1 [Example 9, 6-Methyl-5-[4-[4-(methylsulfonyl)phenyl]-1-piperazinyl]-2,4-pyrimidinediamine, hydrate (10:2)]	18 mm	5.6 nM	61 nM	–	0 mm	–	14 mm	128%	131%	140%	198%	–	–	0 mm	29 mm	–	–	–	–	–
CCCc1nc(N)nc(N)c1N1CCN(c2ccc(C(=O)O)cc2)CC1 [Example 15, 4-[4-(2,4-Diamino-6-propyl-5-pyrimidinyl)-1-piperazinyl]benzoic acid]	15 mm	43 nM	280 nM	–	0 mm	–	19 mm	–	–	–	–	–	–	–	–	16 mm	0 mm	–	–	–
CCCc1nc(N)nc(N)c1N1CCN(c2ccc(C(=O)OCC)cc2)CC1 [Example 18, 4-[4-(2,4-Diamino-6-propyl-5-pyrimidinyl)-1-piperazinyl]benzoic acid, ethyl ester]	15 mm	9.3 nM	210 nM	–	0 mm	–	–	–	–	120%	149%	–	15 mm	–	–	16 mm	0 mm	–	–	–
CCc1nc(N)nc(N)c1N1CCN(c2ccc(C(=O)NC(CCC(=O)O)C(=O)O)cc2)CC1 (stereo not drawn) [drawing 23]	–	–	–	–	15 mm	20 mm	–	–	–	–	–	14 mm	–	–	–	–	–	14 mm	14 mm	–
Cc1nc(N)nc(N)c1N1CCN(c2ccc(C#N)cc2)CC1 [Example 19, 5-[4-(4-cyanophenyl)-1-piperazinyl]-6-methyl-2,4-pyrimidinediamine]	–	1500 nM	> 1000 nM	–	0 mm	–	–	–	–	–	–	15 mm	–	0 mm	–	–	0 mm	–	–	0 mm
